Source: ChEMBL document CHEMBL1141126, “Improving the antiviral efficacy and selectivity of HIV-1 reverse transcriptase inhibitor TSAO-T by the introduction of functional groups at the N-3 position” (J Med Chem, 2005)

Experiments:
CCRF-CEM [1] = test: Cytostatic concentration required to inhibit cell proliferation in human CEM cell line; format: functional
[2] = tested on: Human immunodeficiency virus 2; test: Effective concentration required to inhibit HIV-2 induced cytopathicity in human MT-4 cell line; format: functional, organism-based; conditions: Human immunodeficiency virus 2, MT4
CCRF-CEM [3] = test: Ratio of cytostatic concentration to effective concentration in human CEM cell line; format: functional
[4] = tested on: Human immunodeficiency virus 1; test: Effective concentration required to inhibit HIV-1/138K induced cytopathicity in human CEM cell line; format: functional, organism-based; conditions: Human immunodeficiency virus 1, CCRF-CEM
[5] = tested on: Human immunodeficiency virus 2; test: Effective concentration required to inhibit HIV-2 induced cytopathicity in human CEM cell line; format: functional, organism-based; conditions: Human immunodeficiency virus 2, CCRF-CEM
[6] = tested on: Human immunodeficiency virus 1; test: Effective concentration required to inhibit HIV-1 induced cytopathicity in human CEM cell line; format: functional, organism-based; conditions: Human immunodeficiency virus 1, CCRF-CEM
[7] = target: Human immunodeficiency virus type 1 reverse transcriptase (Human immunodeficiency virus 1, UniProt Q72547); test: Inhibitory concentration required to inhibit recombinant HIV-1 reverse transcriptase
[8] = tested on: Human immunodeficiency virus 1; test: Effective concentration required to inhibit HIV-1 induced cytopathicity in human MT-4 cell line; format: functional, organism-based; conditions: Human immunodeficiency virus 1, MT4

| Structure (SMILES) | CC50 (CCRF-CEM [1]) | EC50 [2] | SI (CCRF-CEM [3]) | EC50 [4] | EC50 [5] | EC50 [6] | IC50 [7] | EC50 [8] |
| --- | --- | --- | --- | --- | --- | --- | --- | --- |
| Cc1cn([C@@H]2O[C@H](CO[Si](C)(C)C(C)(C)C)C3(OS(=O)(=O)C=C3N)[C@H]2O[Si](C)(C)C(C)(C)C)c(=O)[nH]c1=O (some centres undefined) | 12 µM | > 20 µM | 200 | > 10 µM | > 20 µM |  |  |  |
| Cc1cn([C@@H]2O[C@H](CO[Si](C)(C)C(C)(C)C)[C@@]3(OS(=O)(=O)C=C3N)[C@H]2O[Si](C)(C)C(C)(C)C)c(=O)n(CCc2ccccc2)c1=O | 14.2 µM | > 2 µM | 23 | > 10 µM | > 10 µM | 0.62 µM | > 500 µM |  |
| COC(=O)Cn1c(=O)c(C)cn([C@@H]2O[C@H](CO[Si](C)(C)C(C)(C)C)[C@@]3(OS(=O)(=O)C=C3N)[C@H]2O[Si](C)(C)C(C)(C)C)c1=O | > 152 µM | > 152 µM | >253 |  | > 152 µM | 0.06 µM | 3 µM | 0.11 µM |
| Cc1cn([C@@H]2O[C@H](CO[Si](C)(C)C(C)(C)C)[C@@]3(OS(=O)(=O)C=C3N)[C@H]2O[Si](C)(C)C(C)(C)C)c(=O)n(CC(=O)OCc2ccccc2)c1=O | 12.9 µM | > 27 µM | 31 |  | > 5 µM | 0.41 µM | > 250 µM | 0.54 µM |
| Cc1cn([C@@H]2O[C@H](CO[Si](C)(C)C(C)(C)C)[C@@]3(OS(=O)(=O)C=C3N)[C@H]2O[Si](C)(C)C(C)(C)C)c(=O)n(Cc2ccccc2)c1=O | 53 µM | > 50 µM | 294 | > 50 µM | > 50 µM | 0.18 µM | > 500 µM | 0.47 µM |
| Cc1cn([C@@H]2O[C@H](CO[Si](C)(C)C(C)(C)C)[C@@]3(OS(=O)(=O)C=C3N)[C@H]2O[Si](C)(C)C(C)(C)C)c(=O)n(CCC[N+](C)(C)C)c1=O.[I-] | 110 µM | > 25 µM | 22 | > 25 µM | > 25 µM | 5 µM | 11 µM | 4.9 µM |
| COCCn1c(=O)c(C)cn([C@@H]2O[C@H](CO[Si](C)(C)C(C)(C)C)[C@@]3(OS(=O)(=O)C=C3N)[C@H]2O[Si](C)(C)C(C)(C)C)c1=O | 38.8 µM | > 10 µM | 485 | > 10 µM | > 10 µM | 0.08 µM | 2.9 µM | 0.16 µM |
| Cc1cn([C@@H]2O[C@H](CO[Si](C)(C)C(C)(C)C)[C@@]3(OS(=O)(=O)C=C3N)[C@H]2O[Si](C)(C)C(C)(C)C)c(=O)n(CCBr)c1=O | 129 µM | > 50 µM | 4300 | > 50 µM | > 50 µM | 0.03 µM | > 500 µM | 0.17 µM |
| Cc1cn([C@@H]2O[C@H](CO[Si](C)(C)C(C)(C)C)[C@@]3(OS(=O)(=O)C=C3N)[C@H]2O[Si](C)(C)C(C)(C)C)c(=O)n(CC2CC2)c1=O | 60.4 µM | > 50 µM | 335 | > 50 µM | > 10 µM | 0.18 µM | > 500 µM | 0.2 µM |
| Cc1cn([C@@H]2O[C@H](CO[Si](C)(C)C(C)(C)C)[C@@]3(OS(=O)(=O)C=C3N)[C@H]2O[Si](C)(C)C(C)(C)C)c(=O)n(CCCN(C)C)c1=O | 10.4 µM | > 10 µM | 61 | > 10 µM | > 10 µM | 0.17 µM | 6.6 µM | 0.16 µM |
| Cc1cn([C@@H]2O[C@H](CO[Si](C)(C)C(C)(C)C)[C@@]3(OS(=O)(=O)C=C3N)[C@H]2O[Si](C)(C)C(C)(C)C)c(=O)n(CCO)c1=O | 11.3 µM | > 10 µM | 282 | 8 µM | > 10 µM | 0.04 µM | 3.1 µM | 0.06 µM |
| Cc1cn([C@@H]2O[C@H](CO[Si](C)(C)C(C)(C)C)[C@@]3(OS(=O)(=O)C=C3N)[C@H]2O[Si](C)(C)C(C)(C)C)c(=O)n(CCc2cccc3cc[nH]c23)c1=O | 27.6 µM | > 10 µM | 81 | > 50 µM | > 50 µM | 0.34 µM | > 500 µM | 0.96 µM |
| CNC(=O)Cn1c(=O)c(C)cn([C@@H]2O[C@H](CO[Si](C)(C)C(C)(C)C)[C@@]3(OS(=O)(=O)C=C3N)[C@H]2O[Si](C)(C)C(C)(C)C)c1=O | ≥ 250 µM | > 250 µM | >=12500 | 3.5 µM | > 50 µM | 0.02 µM | 3.1 µM | 0.03 µM |
| Cc1cn([C@@H]2O[C@H](CO[Si](C)(C)C(C)(C)C)[C@@]3(OS(=O)(=O)C=C3N)[C@H]2O[Si](C)(C)C(C)(C)C)c(=O)n(CC(=O)N(C)C)c1=O | 245 µM | > 250 µM | 12250 | 4.5 µM | > 250 µM | 0.02 µM | 3.5 µM | 0.04 µM |
| COC(=O)CCCCn1c(=O)c(C)cn([C@@H]2O[C@H](CO[Si](C)(C)C(C)(C)C)[C@@]3(OS(=O)(=O)C=C3N)[C@H]2O[Si](C)(C)C(C)(C)C)c1=O | 125 µM | > 142 µM | 1563 |  | ≥ 142 µM | 0.08 µM | 327 µM | 0.2 µM |
| CCOC(=O)CCCCCn1c(=O)c(C)cn([C@@H]2O[C@H](CO[Si](C)(C)C(C)(C)C)[C@@]3(OS(=O)(=O)C=C3N)[C@H]2O[Si](C)(C)C(C)(C)C)c1=O | 40.6 µM | > 50 µM | 312 | > 10 µM | > 50 µM | 0.13 µM | > 500 µM | 0.27 µM |
| Cc1cn([C@@H]2O[C@H](CO[Si](C)(C)C(C)(C)C)[C@@]3(OS(=O)(=O)C=C3N)[C@H]2O[Si](C)(C)C(C)(C)C)c(=O)n(CCCN(CC(=O)O)CC(=O)O)c1=O | > 250 µM | > 50 µM | >63 | > 50 µM | > 10 µM | 4 µM | > 500 µM |  |
| Cc1cn([C@@H]2O[C@H](CO[Si](C)(C)C(C)(C)C)[C@@]3(OS(=O)(=O)C=C3N)[C@H]2O[Si](C)(C)C(C)(C)C)c(=O)n(CC(N)=O)c1=O | 13.3 µM | > 10 µM | 266 | > 50 µM | > 10 µM | 0.05 µM | > 250 µM |  |
| Cc1cn([C@@H]2O[C@H](CO[Si](C)(C)C(C)(C)C)[C@@]3(OS(=O)(=O)C=C3N)[C@H]2O[Si](C)(C)C(C)(C)C)c(=O)n(CC(=O)O)c1=O | 152 µM | > 155 µM | 44 |  | ≥ 155 µM | 3.48 µM | 15 µM |  |
| Cc1cn([C@@H]2O[C@H](CO[Si](C)(C)C(C)(C)C)[C@@]3(OS(=O)(=O)C=C3N)[C@H]2O[Si](C)(C)C(C)(C)C)c(=O)n(CCCN)c1=O | 11.6 µM | > 10 µM | 83 | > 10 µM | > 10 µM | 0.14 µM | 8.1 µM |  |
| Cc1cn([C@@H]2O[C@H](CO[Si](C)(C)C(C)(C)C)[C@@]3(OS(=O)(=O)C=C3N)[C@H]2O[Si](C)(C)C(C)(C)C)c(=O)n(CCCO)c1=O | 3.86 µM | > 2 µM | 386 |  | > 2 µM | 0.01 µM | 3 µM |  |
